Source: patent publication US8188326B2, “Process for producing adamantane” (Mitsubishi Gas Chemical Company, Inc., priority 2008, dated 2012)

Assay type: physicochemical
Experimental: FIG. 1 is a graph showing the measurement results of the solubility of adamantane (hereinafter, occasionally referred to simply as “ADM”) in TCD (mol %=ADM mol/(exo-TCD+endo-TCD+ADM)mol×100).
Specifically, at 80° C., with respect to the purity of 80% of mixed TCD containing exo-TCD of 99% and endo-TCD of 1% (hereinafter, referred to simply as “exo-TCD (99)”), the total ADM solubility is 20 mol %. […] It is preferable to control the yield (generation amount) of adamantane to be equal to or less than such a level of ADM solubility.

- total ADM solubility of adamantane with respect to TCD: 12.3 mol %
SMILES: C1C2CC3CC1CC(C2)C3 [adamantane, tricyclo[3.3.1.1^3,7]decane]
